Test results taken from paper PMC9817974, “Pharmacokinetic Basis for Using Saliva Matrine Concentrations as a Clinical Compliance Monitoring in Antitumor B Chemoprevention Trials in Humans” (Cancers, 2022).

Legend:
[1] = Sample stability of ATB components (bench, freeze-thaw, short-term, long-term); type: physicochemical; conditions: in % (unit assumed)
Description: samples for calibration were prepared. The study and QC samples were prepared on the same day as the UPLC-MS/MS analysis was done.
Calibration curves were prepared the same way as described in section S1.2.2. The linearity of each calibration curve was determined by plotting the peak area ratio of Matr, Maac, Dict, and Frax to I.S. in plasma. […] The lower limit of […] was defined based on a signal-to-noise ratio of 10:1.
S1.2.4 Extraction recovery and matrix effect
The extraction recoveries of Matr, Maac, Dict, and Frax were determined by comparing the relative peak areas obtained from blank plasma spiked with analytes and those obtained from water spiked with the same amounts of analytes. Matrix effect was determined by comparing the peak areas of blank plasma extracts spikes with analytes and I.S. with those of the standard solutions dried and reconstituted with mobile phase. The quality control samples were prepared in plasma.
Bench work (25°C for 4 hours), short-term (-20°C for 7 days), long-term (-80°C for 4 months) and three freeze-thaw cycle stabilities were determined.

[2] = Single-dose oral pharmacokinetic study of ATB tablets in healthy human subjects (plasma and saliva, non-compartmental analysis); type: in vivo; conditions: after 2400 mg ATB oral administration; LLOQ of Dict […]
Description: In addition, in vivo correlation between plasma and saliva concentrations was determined as the secondary outcome.
The ratio of drug concentration in plasma and saliva were calculated using Equations (1) and (2). (1) RCmax=Cmax saliva/Cmax plasma (2) RAUC=AUC0–24 saliva/AUC0–24 plasma […]
S2.1. Human Pharmacokinetic Study Design
The study was conducted in two phases. Two self-volunteered subjects participated in the study […]
Participants refrained from consumption of […]
dosing blood and saliva samples were collected. Each participant received single-dose oral […]
saliva sample kit for salivary collection. Plasma samples were then collected by centrifugation of […]
hour post-administration. […]
administration. […] Throughout the […]
collected and saline lock was removed. Participants returned the next day morning for 24-hour […]
Participants fasted 8-12 hours before each

[3] = Sample stability of ATB components (bench, freeze-thaw, short-term, long-term); type: physicochemical; conditions: in % (unit assumed); remark: listed apart in the source
[4] = Stability of ATB tablets (ICH storage conditions); conditions: for remaining percentage in ATB tablets, Long term 3 months / remaining percentage in ATB tablets, Long term 6 months / remaining percentage in ATB tablets, Long term 12 months: 25 ± 2 °C/60 ± 5% RH
Description: Two independent batches of ATB tablets were tested according to International Conference on Harmonization (ICH) Guideline for long-term (12 months at 25 ± 2 °C/60 ± 5% RH), intermediate (6 months at 30 ± 2 °C/65 ± 5% RH), and accelerated (40 ± 2 °C/75 ± 5% RH) stability [12].

Row | Stability, 3 cycles freeze-thaw ([1]; HQC concentration level) | Stability, Bench work (4 hrs, 25 oC) ([1]; HQC concentration level) | Stability, Short-term (7 days, -20 oC) ([1]; HQC concentration level) | Stability, 3 cycles freeze-thaw ([1]; LOQ concentration level) | Stability, 3 cycles freeze-thaw ([1]; MQC concentration level) | Stability, Bench work (4 hrs, 25 oC) ([1]; MQC concentration level) | Stability, Long-term (6 months, -80 oC) ([3]; HQC concentration level) | Stability, Bench work (4 hrs, 25 oC) ([3]; LOQ concentration level) | Stability, Long-term (6 months, -80 oC) ([3]; LOQ concentration level) | Stability, Short-term (7 days, -20 oC) ([3]; LOQ concentration level) | Stability, Long-term (6 months, -80 oC) ([3]; MQC concentration level) | Stability, Short-term (7 days, -20 oC) ([3]; MQC concentration level) | remaining percentage in ATB tablets, Long term 3 months [4] [%] | remaining percentage in ATB tablets, Long term 6 months [4] [%] | remaining percentage in ATB tablets, Long term 12 months [4] [%] | remaining percentage in ATB tablets, Intermediate 3 months ([4]; 30 ± 2 °C/65 ± 5% RH) [%] | remaining percentage in ATB tablets, Intermediate 6 months ([4]; 30 ± 2 °C/65 ± 5% RH) [%] | remaining percentage in ATB tablets, Accelerated term 3 months ([4]; 40 ± 2 °C/75 ± 5% RH) [%] | remaining percentage in ATB tablets, Accelerated term 6 months ([4]; 40 ± 2 °C/75 ± 5% RH) [%] | SMILES | detection in plasma and saliva samples [2]
1 | 98.9 ± 2.2 | 89.1 ± 9.9 | 99.1 ± 8.0 | 105.7 ± 3.2 | 104.0 ± 1.3 | 90.5 ± 8.0 | 94.8 ± 0.4 | 108.5 ± 5.0 | 85.7 ± 3.6 | 89.6 ± 0.5 | 90.1 ± 5.6 | 96.6 ± 5.8 | 92.4 ± 6.4 | 81.2 ± 10.1 | 93.8 ± 1.0 | 112.5 ± 7.2 | 113.1 ± 7.2 | 84.3 ± 13.2 | 115.8 ± 1.5 | CC1=C2C(=O)O[C@@H](c3ccoc3)[C@]2(C)CCC1 [Frax, fraxinellone] | not detected in any study sample
2 | 114.7 ± 2.8 | 108.7 ± 8.1 | 91.2 ± 8.0 | 113.3 ± 6.4 | 114.6 ± 3.2 | 109.1 ± 5.9 | 92.3 ± 5.7 | 93.8 ± 11.6 | 87.0 ± 5.1 | 99.6 ± 1.4 | 85.5 ± 0.4 | 89.1 ± 11.0 | 81.1 ± 5.3 | 101.6±0.2 | 89.1 ± 4.2 | – | – | – | – | Oc1ccc2c(c1)OC[C@H]1c3cc4c(cc3O[C@@H]21)OCO4 [Maac, maackiain] | detected in 30 min plasma sample of only one participant
